Experimental data as given in PMC10656490, “Sequence-based prediction of the intrinsic solubility of peptides containing non-natural amino acids” (Nature Communications, 2023).
Like-named read-outs stand apart in the source and are kept apart here. Where a SMILES comes first, the peptide text is derived from it. [ ]: non-standard residue; d: D form. Cha = N[C@@H](CC1CCCCC1)C(=O)O; Cit = NC(=O)NCCC[C@H](N)C(=O)O; Nle = CCCC[C@H](N)C(=O)O

Test: Solubility by ultracentrifugation (GLP-1 variants)
Format: physicochemical
Conditions: for solubility: 10 mM citrate 10 mM phosphate buffer, pH 7, GLP-1 variants, 2 mg/mL in 10 mM citrate 10 mM phosphate pH 7, 30 min 500,000 g 4 °C
Method: Relative solubility was measured using a recently developed PEG precipitation assay. For all PYY variants the standard assay worked well, and no changes had to be implemented (Fig. 2a). […] Moreover, to ensure that the results stemming from the AMS assay are consistent and reliable, we performed the 18 A experiments twice independently on different days. The results confirmed that they are indeed replicable, and we were therefore confident to use them for the validation of our approach (Supplementary Fig. 3). […] Even at final concentrations of 0.33 mg/mL (instead of 1 mg/mL) most variants remained insoluble. We used ultracentrifugation to determine the relative solubilities of the GLP-1 variants (Table 3). To confirm the reliability of this method we replicated the results on a different day with the same stock solutions (Supplementary Fig. 4).
Aliquots of 1 mg were prepared from the purified and lyophilised stocks. […] Briefly, a precipitant is titrated in increasing concentration to a fixed concentration of protein to induce precipitation of the protein. The samples are incubated for 48 h at 4° after mixing. The samples are centrifuged and the remaining protein concentration is measured in the supernatant using a plate reader. PYY and 18 A variants were dissolved in 10 mM citrate 10 mM phosphate buffer at pH 7 for a final concentration of 3 mg/mL. The assay was run with 50% 6000 PEG for PYY and with 3.8 M AMS for 18 A. To improve throughput, a multichannel robot was employed to measure several peptides at once with the workflow being kept the same as described previously. […] 120 µL of each sample were centrifuged using an OptimaTLX Ultracentrifuge and spinning for 30 min at 500,000 g at 4 °C. The supernatant was removed, and the peptide concentration was measured using a NanoDrop.

[1] = GLP1 variants, Figure 3c, in mg/mL
[2] = source data Supplementary Fig. 4, GLP-1 variants, 2 stands where Table 3 prints S, in mg/mL
[3] = run 1, read-out: Run 1 solubility (peptide concentration in supernatant)
[4] = run 2, read-out: Run 2 solubility (peptide concentration in supernatant)

| Compound | Ultracentrifugation [1] | First Run [2] | Second Run [2] | solubility [3] | solubility [4] | First Run | Second Run | Ultracentrifugation |
| --- | --- | --- | --- | --- | --- | --- | --- | --- |
| CC[C@H](C)[C@H](NC(=O)[C@H](Cc1ccccc1)NC(=O)[C@H](CCC(=O)O)NC(=O)[C@H](CCCCN)NC(=O)[C@H](C)NC(=O)[C@H](C)NC(=O)[C@H](CCC(N)=O)NC(=O)CNC(=O)[C@H](CCC(=O)O)NC(=O)[C@H](CC(C)C)NC(=O)[C@H](Cc1ccc(O)cc1)NC(=O)[C@H](CO)NC(=O)[C@H](CO)NC(=O)[C@@H](NC(=O)[C@H](CC(=O)O)NC(=O)[C@H](CO)NC(=O)[C@@H](NC(=O)[C@H](Cc1ccccc1)NC(=O)[C@@H](NC(=O)CNC(=O)[C@H](CCC(=O)O)NC(=O)[C@H](C)NC(=O)[C@@H](N)Cc1c[nH]cn1)[C@@H](C)O)[C@@H](C)O)C(C)C)C(=O)N[C@@H](C)C(=O)N[C@@H](Cc1c[nH]c2ccccc12)C(=O)N[C@@H](CC(C)C)C(=O)N[C@H](C(=O)N[C@@H](CCCCN)C(=O)NCC(=O)N[C@@H](CCCNC(=N)N)C(N)=O)C(C)C [Compound 1, reference compound] | 0.9813 | 0.5803 | 1.382 |  |  |  |  |  |
| HAEGTFTS[CHA]VSSYLEGQAAK[NAC]FIAWLVKGR [Compound 9] |  |  |  |  |  | 0 | 0 | 0 |
| CCCC[C@H](NC(=O)[C@H](CCC(=O)O)NC(=O)[C@H](C)NC(=O)[C@@H](N)Cc1c[nH]cn1)C(=O)N[C@H](C(=O)N[C@@H](Cc1ccccc1)C(=O)N[C@H](C(=O)N[C@@H](CO)C(=O)N[C@@H](CC(=O)O)C(=O)N[C@H](C(=O)N[C@@H](CO)C(=O)N[C@@H](CO)C(=O)N[C@@H](Cc1ccc(O)cc1)C(=O)N[C@@H](CC(C)C)C(=O)N[C@@H](CCC(=O)O)C(=O)NCC(=O)N[C@@H](CCCNC(N)=O)C(=O)N[C@@H](C)C(=O)N[C@@H](C)C(=O)N[C@@H](CCCCN)C(=O)N[C@@H](CCC(=O)O)C(=O)N[C@@H](Cc1ccccc1)C(=O)N[C@H](C(=O)N[C@@H](C)C(=O)N[C@@H](Cc1c[nH]c2ccccc12)C(=O)N[C@@H](CC(C)C)C(=O)N[C@H](C(=O)N[C@@H](CCCCN)C(=O)NCC(=O)N[C@@H](CCCNC(=N)N)C(N)=O)C(C)C)[C@@H](C)CC)C(C)C)[C@@H](C)O)[C@@H](C)O [Compound 10] (H-HAE[Nle]TFTSDVSSYLEG[Cit]AAKEFIAWLVKGR-NH2; N-terminus assumed) | 0.1367 | 0.15 | 0.1234 | 150 µg/mL | 120 µg/mL |  |  |  |
| CC[C@H](C)[C@H](NC(=O)[C@H](Cc1ccccc1)NC(=O)[C@H](CCC(=O)O)NC(=O)[C@H](CCCCN)NC(=O)[C@H](C)NC(=O)[C@H](CCCCNC(C)=O)NC(=O)[C@H](CCC(N)=O)NC(=O)CNC(=O)[C@H](CCC(=O)O)NC(=O)[C@H](CC(C)C)NC(=O)[C@H](Cc1ccc(O)cc1)NC(=O)[C@H](CO)NC(=O)[C@H](CO)NC(=O)[C@@H](NC(=O)[C@H](CC(=O)O)NC(=O)[C@H](CO)NC(=O)[C@@H](NC(=O)[C@H](Cc1ccccc1)NC(=O)[C@@H](NC(=O)CNC(=O)[C@H](CCC(=O)O)NC(=O)[C@H](C)NC(=O)[C@@H](N)Cc1c[nH]cn1)[C@@H](C)O)[C@@H](C)O)C(C)C)C(=O)N[C@@H](C)C(=O)N[C@@H](Cc1c[nH]c2ccccc12)C(=O)N[C@@H](CC(C)C)C(=O)N[C@H](C(=O)N[C@@H](CCCCN)C(=O)NCC(=O)N[C@@H](CCCNC(=N)N)C(N)=O)C(C)C [Compound 4] (H-HAEGTFTSDVSSYLEGQK(Ac)AKEFIAWLVKGR-NH2; N-terminus assumed) | 2 | 2 | 2 | > 2000 µg/mL | > 2000 µg/mL |  |  |  |
| CC[C@H](C)[C@H](NC(=O)[C@H](Cc1ccccc1)NC(=O)[C@H](CCC(=O)O)NC(=O)[C@H](CCCCN)NC(=O)[C@H](C)NC(=O)[C@H](CCCNC(N)=O)NC(=O)[C@H](CCC(N)=O)NC(=O)CNC(=O)[C@H](CCC(=O)O)NC(=O)[C@H](CC(C)C)NC(=O)[C@H](Cc1ccc(O)cc1)NC(=O)[C@H](CO)NC(=O)[C@H](CO)NC(=O)[C@@H](NC(=O)[C@H](CC(=O)O)NC(=O)[C@H](CO)NC(=O)[C@@H](NC(=O)[C@H](Cc1ccccc1)NC(=O)[C@@H](NC(=O)CNC(=O)[C@H](CCC(=O)O)NC(=O)[C@H](C)NC(=O)[C@@H](N)Cc1c[nH]cn1)[C@@H](C)O)[C@@H](C)O)C(C)C)C(=O)N[C@@H](C)C(=O)N[C@@H](Cc1c[nH]c2ccccc12)C(=O)N[C@@H](CC(C)C)C(=O)N[C@H](C(=O)N[C@@H](CCCCN)C(=O)NCC(=O)N[C@@H](CCCNC(=N)N)C(N)=O)C(C)C [Compound 6] (H-HAEGTFTSDVSSYLEGQ[Cit]AKEFIAWLVKGR-NH2; N-terminus assumed) | 2 | 2 | 2 | > 2000 µg/mL | > 2000 µg/mL |  |  |  |

Now from value to compound:

| Ultracentrifugation [1] | First Run [2] | Second Run [2] | solubility [3] | solubility [4] | First Run | Second Run | Ultracentrifugation | Compound |
| --- | --- | --- | --- | --- | --- | --- | --- | --- |
| 0.8319 | 0.8416 | 0.8222 | 840 µg/mL | 820 µg/mL |  |  |  | CC[C@H](C)[C@H](NC(=O)[C@H](Cc1ccccc1)NC(=O)[C@H](CCC(=O)O)NC(=O)[C@H](CCCCN)NC(=O)[C@H](C)NC(=O)[C@H](CC1CCCCC1)NC(=O)[C@H](CCC(N)=O)NC(=O)CNC(=O)[C@H](CCC(=O)O)NC(=O)[C@H](CC(C)C)NC(=O)[C@H](Cc1ccc(O)cc1)NC(=O)[C@H](CO)NC(=O)[C@H](CO)NC(=O)[C@@H](NC(=O)[C@H](CC(=O)O)NC(=O)[C@H](CO)NC(=O)[C@@H](NC(=O)[C@H](Cc1ccccc1)NC(=O)[C@@H](NC(=O)CNC(=O)[C@H](CCC(=O)O)NC(=O)[C@H](C)NC(=O)[C@@H](N)Cc1c[nH]cn1)[C@@H](C)O)[C@@H](C)O)C(C)C)C(=O)N[C@@H](C)C(=O)N[C@@H](Cc1c[nH]c2ccccc12)C(=O)N[C@@H](CC(C)C)C(=O)N[C@H](C(=O)N[C@@H](CCCCN)C(=O)NCC(=O)N[C@@H](CCCNC(N)=O)C(N)=O)C(C)C [Compound 7] (H-HAEGTFTSDVSSYLEGQ[Cha]AKEFIAWLVKG[Cit]-NH2; N-terminus assumed) |
| 0 | 0 | 0 |  |  |  |  |  | CC[C@H](C)[C@H](NC(=O)[C@H](Cc1ccccc1)NC(=O)[C@H](CCC(=O)O)NC(=O)[C@H](CCCCN)NC(=O)[C@H](C)NC(=O)[C@H](CC1CCCCC1)NC(=O)[C@H](CCC(N)=O)NC(=O)CNC(=O)[C@H](CCC(=O)O)NC(=O)[C@H](CC(C)C)NC(=O)[C@H](Cc1ccc(O)cc1)NC(=O)[C@H](CO)NC(=O)[C@H](CO)NC(=O)[C@@H](NC(=O)[C@H](CC(=O)O)NC(=O)[C@H](CO)NC(=O)[C@@H](NC(=O)[C@H](Cc1ccccc1)NC(=O)[C@@H](NC(=O)CNC(=O)[C@H](CCC(=O)O)NC(=O)[C@H](C)NC(=O)[C@@H](N)Cc1c[nH]cn1)[C@@H](C)O)[C@@H](C)O)C(C)C)C(=O)N[C@@H](C)C(=O)N[C@@H](Cc1c[nH]c2ccccc12)C(=O)N[C@@H](CC(C)C)C(=O)N[C@H](C(=O)N[C@@H](CCCCN)C(=O)NCC(=O)N[C@@H](CCCNC(=N)N)C(N)=O)C(C)C [Compound 2] (H-HAEGTFTSDVSSYLEGQ[Cha]AKEFIAWLVKGR-NH2; N-terminus assumed) |
| 0.1242 | 0.086 | 0.1624 | 90 µg/mL | 160 µg/mL |  |  |  | CCCC[C@H](NC(=O)[C@H](CCC(N)=O)NC(=O)CNC(=O)[C@H](CCC(=O)O)NC(=O)[C@H](CC(C)C)NC(=O)[C@H](Cc1ccc(O)cc1)NC(=O)[C@H](CO)NC(=O)[C@H](CO)NC(=O)[C@@H](NC(=O)[C@H](CC(=O)O)NC(=O)[C@H](CO)NC(=O)[C@@H](NC(=O)[C@H](Cc1ccccc1)NC(=O)[C@@H](NC(=O)CNC(=O)[C@H](CCC(=O)O)NC(=O)[C@H](C)NC(=O)[C@@H](N)Cc1c[nH]cn1)[C@@H](C)O)[C@@H](C)O)C(C)C)C(=O)N[C@@H](C)C(=O)N[C@@H](CCCCN)C(=O)N[C@@H](CCC(=O)O)C(=O)N[C@@H](Cc1ccccc1)C(=O)N[C@H](C(=O)N[C@@H](C)C(=O)N[C@@H](Cc1c[nH]c2ccccc12)C(=O)N[C@@H](CC(C)C)C(=O)N[C@H](C(=O)N[C@@H](CCCCN)C(=O)NCC(=O)N[C@@H](CCCNC(=N)N)C(N)=O)C(C)C)[C@@H](C)CC [Compound 3] (H-HAEGTFTSDVSSYLEGQ[Nle]AKEFIAWLVKGR-NH2; N-terminus assumed) |
